Experimental findings from ChEMBL document CHEMBL6109053, “Aspirin-based PROTACs as COX-2 degraders for anti-inflammation” (Bioorg Med Chem, 2025) are described below.

As a reminder, the IC50 is the point on the concentration scale where inhibition reaches its midpoint.

The test system of data set [1] is RAW264.7. The data set can be described thus: Cytotoxicity against mouse RAW264.7 cells at 20 uM incubated for 24 hrs by CCK-8 assay. Type of data set: toxicity, cell-based. Particulars: raw264.7, 24 h.
Data set [2] has as its system RAW264.7. The data set can be described thus: Anti-inflammatory activity in LPS-induced mouse RAW264.7 cells. Type of data set: functional, cell-based.
Data set [3] has as its target Protein cereblon/Prostaglandin G/H synthase 2 (Mus musculus) (UniProt Q05769+Q8C7D2). In words: PROTAC activity at COX-2/CRBN in mouse RAW264.7 cells assessed as downregulation of COX2 expression measured after 24 hrs by Western blot analysis. It is filed as cell-based. Particulars: dose 5-20 µM. Background: In western blotting, separated proteins are transferred to a membrane and probed.

For data set [4], the system named is RAW264.7. In words: PROTAC activity at COX-2/VHL in mouse RAW264.7 cells assessed as downregulation of COX2 expression measured after 24 hrs by Western blot analysis. It is filed as cell-based. Particulars: dose 5-20 µM.
For data set [5], the target named is T1, Prostaglandin G/H synthase 2 (Homo sapiens, UniProt P35354).
T1 sequence (P35354 whole entry): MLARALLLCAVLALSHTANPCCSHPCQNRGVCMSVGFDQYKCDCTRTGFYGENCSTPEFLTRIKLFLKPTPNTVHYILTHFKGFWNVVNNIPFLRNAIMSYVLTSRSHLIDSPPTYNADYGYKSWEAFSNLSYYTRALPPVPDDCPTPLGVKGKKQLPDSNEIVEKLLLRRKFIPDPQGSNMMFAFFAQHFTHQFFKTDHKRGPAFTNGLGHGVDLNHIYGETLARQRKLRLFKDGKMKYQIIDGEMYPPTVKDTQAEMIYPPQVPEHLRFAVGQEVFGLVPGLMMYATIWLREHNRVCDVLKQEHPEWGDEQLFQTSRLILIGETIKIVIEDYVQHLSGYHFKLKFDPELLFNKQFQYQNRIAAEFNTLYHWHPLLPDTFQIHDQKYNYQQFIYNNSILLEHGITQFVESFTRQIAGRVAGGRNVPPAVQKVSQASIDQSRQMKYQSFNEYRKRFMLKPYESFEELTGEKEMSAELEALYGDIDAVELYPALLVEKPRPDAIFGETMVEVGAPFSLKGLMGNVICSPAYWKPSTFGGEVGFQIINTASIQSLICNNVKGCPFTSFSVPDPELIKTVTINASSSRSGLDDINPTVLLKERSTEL
The data set can be described thus: Inhibition of human recombinant COX-2 using S0168-2 as substrate preincubated for 10 mins followed by substrate addition and measured after 10 mins by microplate reader analysis.

Structures are written as SMILES. Active and inactive are the calls of the source. The rule behind the calls is not given here.

Protein cereblon/Prostaglandin G/H synthase 2 (Mus musculus), sequence (Q05769 whole entry, looked up): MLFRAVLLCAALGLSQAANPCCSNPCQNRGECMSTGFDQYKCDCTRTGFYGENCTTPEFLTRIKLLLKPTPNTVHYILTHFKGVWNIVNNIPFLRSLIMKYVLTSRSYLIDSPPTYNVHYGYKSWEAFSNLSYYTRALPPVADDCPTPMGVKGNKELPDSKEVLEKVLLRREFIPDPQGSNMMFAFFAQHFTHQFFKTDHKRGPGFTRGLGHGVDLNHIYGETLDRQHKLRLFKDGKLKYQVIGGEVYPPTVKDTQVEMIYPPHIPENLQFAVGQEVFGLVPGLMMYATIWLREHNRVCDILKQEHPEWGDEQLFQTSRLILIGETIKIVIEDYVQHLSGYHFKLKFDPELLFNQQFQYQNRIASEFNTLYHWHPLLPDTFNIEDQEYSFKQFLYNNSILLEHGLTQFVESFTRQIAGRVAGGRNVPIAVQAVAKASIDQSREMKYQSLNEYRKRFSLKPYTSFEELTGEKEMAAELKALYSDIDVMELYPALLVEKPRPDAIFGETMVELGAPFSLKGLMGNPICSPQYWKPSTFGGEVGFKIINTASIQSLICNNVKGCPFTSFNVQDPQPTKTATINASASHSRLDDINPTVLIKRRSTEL
Protein cereblon/Prostaglandin G/H synthase 2 (Mus musculus), sequence (Q8C7D2 whole entry, looked up): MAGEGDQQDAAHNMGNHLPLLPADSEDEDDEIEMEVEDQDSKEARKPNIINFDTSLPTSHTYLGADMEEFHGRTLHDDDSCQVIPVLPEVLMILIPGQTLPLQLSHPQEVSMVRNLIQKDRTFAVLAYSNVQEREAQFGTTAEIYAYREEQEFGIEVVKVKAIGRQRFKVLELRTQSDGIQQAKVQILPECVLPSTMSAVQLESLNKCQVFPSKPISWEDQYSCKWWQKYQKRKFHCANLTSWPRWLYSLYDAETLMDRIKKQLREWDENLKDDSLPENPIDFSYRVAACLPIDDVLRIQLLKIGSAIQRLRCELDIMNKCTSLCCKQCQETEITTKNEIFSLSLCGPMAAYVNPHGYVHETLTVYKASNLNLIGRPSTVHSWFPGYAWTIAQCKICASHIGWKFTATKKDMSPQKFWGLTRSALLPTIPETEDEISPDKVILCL

Consider `O=C1CCC(N2C(=O)c3cccc(NC4CCC(NC(=O)CCCCn5cc(CCC(=O)Oc6ccccc6C(=O)O)nn5)CC4)c3C2=O)C(=O)N1` (configuration not stated), for which the Activity entry with RAW264.7 [1] is “Non-toxic”; in data set [3] it was “Dose-dependent-effect”. Moreover, in the data set on RAW264.7 [2], the outcome was Active.

Regarding `Cc1ncsc1-c1ccc([C@@H](C)NC(=O)[C@@H]2C[C@@H](O)CN2C(=O)[C@@H](NC(=O)CCCCn2cc(CCC(=O)Oc3ccccc3C(=O)O)nn2)C(C)(C)C)cc1`, the results for the Activity entry in the data set on RAW264.7 [1] and in the data set on RAW264.7 [4] were “Non-toxic” and “Dose-dependent-effect”, respectively. In addition, the result in the data set with RAW264.7 [2] was Active. Besides, the IC50 in data set [5] amounted to 323 µM.
